Reference: the supplement of paper PMC10307832

Legend:
Experiment in all cases: relative viability (nuclei count vs DMSO), 5 days (fraction); higher = more cells survive
[1] = compound: Nc1nc2[nH]cc(CCc3ccc(C(=O)N[C@@H](CCC(=O)O)C(=O)O)cc3)c2c(=O)[nH]1 [Pemetrexed] + O=C(CCCCCCC(=O)Nc1ccccc1)NO [Vorinostat] (partner 1 µM)
Procedure, shortened: (§1)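 Relative viability equals treated-well nuclei counts divided by vehicle-well nuclei counts. Counts came from 4× images of lung cancer cell lines grown in 1536-well plates for 5 days after pin-tool dosing on the day after seeding. Dosing used one drug alone or a fixed anchor-drug dose plus five library-drug doses (not always all listed) in √10 steps, and values are medians of duplicate plates.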

[2] = compound: Nc1nc2[nH]cc(CCc3ccc(C(=O)N[C@@H](CCC(=O)O)C(=O)O)cc3)c2c(=O)[nH]1 [Pemetrexed] + CS(=O)(=O)N1CCN(Cc2cc3nc(-c4cccc5[nH]ncc45)nc(N4CCOCC4)c3s2)CC1 [Pictilisib] (partner 1 µM)
Procedure, shortened: as §1

[3] = compound: CC[C@H](Nc1ncnc2[nH]cnc12)c1nc2cccc(F)c2c(=O)n1-c1ccccc1 [Idelalisib] + Cc1nc(Nc2ncc(C(=O)Nc3c(C)cccc3Cl)s2)cc(N2CCN(CCO)CC2)n1 [Dasatinib] (partner 0.075 µM)
Procedure, shortened: as §1

[4] = compound: CC[C@H](Nc1ncnc2[nH]cnc12)c1nc2cccc(F)c2c(=O)n1-c1ccccc1 [Idelalisib] + Cc1cc(Nc2cc(N3CCN(C)CC3)nc(Sc3ccc(NC(=O)C4CC4)cc3)n2)n[nH]1 [Tozasertib] (partner 0.1 µM)
Procedure, shortened: as §1

Cell Line	relative viability ([1]; first compound 0.002 µM)	relative viability ([1]; first compound 0.006325 µM)	relative viability ([1]; first compound 0.02 µM)	relative viability ([1]; first compound 0.06325 µM)	relative viability ([1]; first compound 0.2 µM)	relative viability ([2]; first compound 0.002 µM)	relative viability ([2]; first compound 0.006325 µM)	relative viability ([2]; first compound 0.02 µM)	relative viability ([2]; first compound 0.06325 µM)	relative viability ([2]; first compound 0.2 µM)	relative viability ([3]; first compound 0.04 µM)	relative viability ([3]; first compound 0.1265 µM)	relative viability ([3]; first compound 0.4 µM)	relative viability ([3]; first compound 1.265 µM)	relative viability ([3]; first compound 4 µM)	relative viability ([4]; first compound 0.04 µM)	relative viability ([4]; first compound 0.1265 µM)	relative viability ([4]; first compound 0.4 µM)	relative viability ([4]; first compound 1.265 µM)	relative viability ([4]; first compound 4 µM)
201T	0.867	0.971	1.03	1.03	0.848	0.625	0.698	0.715	0.632	0.5	0.609	0.614	0.476	0.623	0.605	1.07	1.01	0.785	0.947	0.667
A549	–	–	–	–	–	0.42	0.519	0.602	0.483	0.489	–	–	–	–	–	–	–	–	–	–
A-427	0.855	0.865	0.867	0.876	0.708	0.646	0.759	0.804	0.746	0.642	0.783	0.685	0.568	0.704	0.671	0.222	0.222	0.219	0.196	0.181
ABC-1	1.07	1.68	1.18	1.33	1.1	0.947	0.662	0.954	0.826	0.706	0.537	0.599	0.582	0.681	0.573	0.146	0.154	0.186	0.219	0.196
BEN	0.6	0.578	0.587	0.573	0.555	0.53	0.564	0.591	0.539	0.525	0.305	0.318	0.32	0.364	0.31	0.479	0.562	0.542	0.488	0.413
CAL-12T	0.634	0.683	0.852	0.704	0.821	0.426	0.484	0.451	0.416	0.389	0.315	0.478	0.273	0.375	0.305	0.323	0.254	0.295	0.325	0.265
COR-L23	0.474	0.398	0.424	0.186	0.136	0.58	0.688	0.825	0.24	0.147	0.442	0.42	0.388	0.455	0.417	0.196	0.195	0.207	0.225	0.162
COR-L 105	0.954	0.784	0.849	0.857	0.688	0.406	0.463	0.423	0.386	0.416	0.363	0.379	0.31	0.354	0.334	0.354	0.321	0.312	0.334	0.357
Calu-6	–	–	–	–	–	0.876	0.911	0.978	0.903	0.785	–	–	–	–	–	–	–	–	–	–
ChaGo-K-1	0.721	0.735	0.751	0.293	0.233	0.609	0.793	0.597	0.224	0.28	0.548	0.516	0.534	0.563	0.585	0.244	0.227	0.197	0.212	0.187
EBC-1	–	–	–	–	–	0.341	0.346	0.395	0.337	0.339	–	–	–	–	–	–	–	–	–	–
EKVX	0.683	0.654	0.724	0.793	0.557	0.408	0.441	0.418	0.432	0.269	0.492	0.549	0.348	0.436	0.341	0.411	0.419	0.336	0.342	0.317
EMC-BAC-2	0.397	0.734	0.539	0.402	0.256	0.534	0.465	0.564	0.579	0.421	0.319	0.337	0.283	0.321	0.346	0.313	0.277	0.296	0.276	0.281
EPLC-272H	0.519	0.398	0.544	0.308	0.288	0.375	0.348	0.409	0.326	0.325	0.277	0.293	0.293	0.271	0.291	0.212	0.227	0.242	0.212	0.222
H3255	0.66	0.767	0.753	0.817	0.596	0.385	0.43	0.504	0.42	0.431	0.442	0.342	0.386	0.391	0.312	0.646	0.852	0.583	0.568	0.544
HARA	0.517	0.611	0.512	0.595	0.231	0.465	0.374	0.436	0.235	0.204	0.279	0.235	0.174	0.228	0.238	0.0983	0.113	0.121	0.0975	0.101
HCC-15	0.821	0.76	0.878	0.69	0.345	0.629	0.777	0.766	0.544	0.238	0.614	0.591	0.52	0.674	0.491	0.556	0.419	0.356	0.384	0.31
HCC-44	0.972	1.11	1.14	1.11	1.13	1.52	0.61	0.654	0.537	0.395	–	–	–	–	–	0.879	1.02	0.762	0.866	0.756
HCC-78	–	0.447	0.401	0.294	0.328	–	0.179	0.197	0.14	0.157	0.407	0.378	0.311	0.361	0.41	0.314	0.389	0.392	0.388	0.295
HCC-366	0.208	0.341	0.393	0.386	0.269	0.193	0.133	0.151	0.127	0.14	0.679	0.705	0.433	0.62	0.601	0.121	0.126	0.107	0.112	0.068

Cell Line	relative viability ([1]; first compound 0.002 µM)	relative viability ([1]; first compound 0.006325 µM)	relative viability ([1]; first compound 0.02 µM)	relative viability ([1]; first compound 0.06325 µM)	relative viability ([1]; first compound 0.2 µM)	relative viability ([2]; first compound 0.002 µM)	relative viability ([2]; first compound 0.006325 µM)	relative viability ([2]; first compound 0.02 µM)	relative viability ([2]; first compound 0.06325 µM)	relative viability ([2]; first compound 0.2 µM)	relative viability ([3]; first compound 0.04 µM)	relative viability ([3]; first compound 0.1265 µM)	relative viability ([3]; first compound 0.4 µM)	relative viability ([3]; first compound 1.265 µM)	relative viability ([3]; first compound 4 µM)	relative viability ([4]; first compound 0.04 µM)	relative viability ([4]; first compound 0.1265 µM)	relative viability ([4]; first compound 0.4 µM)	relative viability ([4]; first compound 1.265 µM)	relative viability ([4]; first compound 4 µM)
HCC-827	0.764	0.912	0.959	0.515	0.426	0.74	0.973	0.929	0.95	0.664	0.31	0.318	0.357	0.285	0.177	0.457	0.447	0.389	0.453	0.398
HOP-62	0.387	0.581	0.721	0.626	0.547	0.351	0.666	0.817	0.655	0.655	0.636	0.714	0.547	0.581	0.526	0.415	0.408	0.392	0.436	0.326
IA-LM	0.95	0.988	1.1	0.808	0.982	0.115	0.323	–	0.343	0.339	–	–	–	–	–	–	–	–	–	–
LC-2-ad	0.657	0.671	0.663	0.319	0.27	0.402	0.306	0.428	0.211	0.123	0.583	0.48	0.424	0.626	0.519	0.44	0.455	0.374	0.397	0.457
LCLC-97TM1	0.711	0.559	0.765	0.803	0.163	0.163	0.159	0.173	0.133	0.115	0.938	0.846	0.807	0.946	0.88	0.299	0.172	0.201	0.207	0.207
LCLC-103H	0.663	0.753	0.857	0.881	0.763	0.639	0.588	0.714	0.61	0.669	0.371	0.388	0.393	0.535	0.309	0.505	0.48	0.425	0.472	0.308
LK-2	0.312	0.313	0.254	0.297	0.338	–	0.472	0.654	0.466	0.41	0.277	0.294	–	0.273	0.283	0.178	0.165	–	0.18	0.164
LOU-NH91	0.878	0.906	1.02	0.591	0.395	0.511	0.488	0.551	0.453	0.392	0.599	0.561	0.482	0.42	0.542	0.749	0.641	0.651	0.557	0.708
LU99A	0.488	0.464	0.495	0.466	0.385	0.329	0.295	0.332	0.334	0.256	0.528	0.617	0.428	0.61	0.646	0.271	0.292	0.278	0.306	0.318
LXF-289	0.625	0.758	0.795	0.74	0.718	0.756	0.759	0.844	0.827	0.701	0.19	0.218	0.135	0.202	0.195	0.259	0.189	0.195	0.14	0.235
NCI-H522	0.801	0.871	1.09	0.797	0.927	–	–	–	–	–	1.08	0.814	0.894	0.895	0.791	0.578	0.569	0.508	0.571	0.489
NCI-H1299	–	–	–	–	–	0.86	0.724	1.06	0.762	0.536	–	–	–	–	–	–	–	–	–	–
NCI-H1563	–	–	–	–	–	0.705	0.609	0.665	0.634	0.625	0.473	0.491	0.472	0.496	0.388	–	–	–	–	–
NCI-H1623	–	–	–	–	–	–	–	–	–	–	0.505	0.559	0.52	0.517	0.602	0.393	0.429	0.443	0.431	0.388
NCI-H1648	0.397	0.138	0.399	0.465	0.551	–	–	–	–	–	–	–	–	–	–	0.489	0.373	0.412	0.425	0.217
NCI-H1703	–	–	–	–	–	–	0.248	0.29	0.287	0.264	–	–	–	–	–	–	–	–	–	–
NCI-H1792	–	–	–	–	–	0.252	0.298	0.325	0.255	0.252	0.469	0.92	0.68	0.794	0.569	–	–	–	–	–
NCI-H2342	0.824	0.831	0.749	0.773	0.843	–	–	–	–	–	0.358	0.316	0.324	0.304	0.327	0.44	0.556	0.44	0.455	0.397
SW 900	0.499	0.523	0.682	0.576	0.406	–	–	–	–	–	0.497	0.543	0.417	0.543	0.326	0.69	0.539	0.542	0.605	0.594
